Assay results: US10173991B2, “Sulfone amide linked benzothiazole inhibitors of endothelial lipase” (BRISTOL-MYERS SQUIBB COMPANY, priority 2014, dated 2019)
Like-named read-outs stand apart in the source and are kept apart here.

Target: Endothelial lipase (EL) (Homo sapiens (Human), UniProt Q9Y5X9)
Assay: Endothelial lipase (EL) enzymatic assay with fluorescent substrate A10070 in DMPG vesicles
Type: biochemical
How it was run: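 Compounds were preincubated with enzyme for 30 min at 37° C before FRET-substrate vesicles (A10070 in DMPG, 0.11 mole fraction) were added. Reaction rates were obtained from the 300–900 sec slope of fluorescence at 490/530 nm.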

[1] = EL from conditioned media of HT-1080 cells, 30 min preincubation at 37° C.

Endothelial lipase (EL), sequence (Q9Y5X9 21-500): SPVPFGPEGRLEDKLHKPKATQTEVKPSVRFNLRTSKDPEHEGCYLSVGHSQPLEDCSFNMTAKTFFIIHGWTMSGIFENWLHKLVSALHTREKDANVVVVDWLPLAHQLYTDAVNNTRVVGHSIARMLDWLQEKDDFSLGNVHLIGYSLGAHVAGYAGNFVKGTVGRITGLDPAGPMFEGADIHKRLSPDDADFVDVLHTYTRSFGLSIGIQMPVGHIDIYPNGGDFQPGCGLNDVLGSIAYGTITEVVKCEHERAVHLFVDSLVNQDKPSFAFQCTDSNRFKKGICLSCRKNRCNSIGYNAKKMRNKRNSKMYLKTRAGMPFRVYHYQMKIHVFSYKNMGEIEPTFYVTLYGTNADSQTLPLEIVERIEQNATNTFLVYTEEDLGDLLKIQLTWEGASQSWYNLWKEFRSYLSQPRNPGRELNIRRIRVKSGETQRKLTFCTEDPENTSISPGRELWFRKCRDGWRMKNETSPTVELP

| Compound | IC50 [nM] | IC50 [1] [nM] |
| --- | --- | --- |
| CS(=O)(=O)C(C(=O)NCC(=O)NC1CC1)c1nc2cc(F)c(-c3ccc(-n4cccn4)cc3)cc2s1 (stereo not drawn) [Example 375, N-[(cyclopropyl-carbamoyl)methyl]-2-{5-fluoro-6-[4-(1H-pyrazol-1-yl)phenyl]-1,3-benzothiazol-2-yl}-2-methanesulfonyl-acetamide] | 2 | – |
| COCCS(=O)(=O)C(C(=O)NCC(=O)NCCOCc1ccccc1)c1nc2ccc(-c3ccc(F)nc3)cc2s1 (stereo not drawn) [Example 377, N-({[2-(benzyloxy)ethyl]carbamoyl}methyl)-2-[6-(6-fluoropyridin-3-yl)-1,3-benzothiazol-2-yl]-2-(2-methoxyethane-sulfonyl)acetamide] | 1 | – |
| COCCNC(=O)CNC(=O)C(c1nc2ccc(-c3ccc(F)nc3)cc2s1)S(=O)(=O)CCOC (stereo not drawn) [Example 379, 2-[6-(6-fluoropyridin-3-yl)-1,3-benzothiazol-2-yl]-2-(2-methoxyethane-sulfonyl)-N-{[(2-methoxyethyl)carbamoyl]methyl} acetamide] | 108 | – |
| COCCS(=O)(=O)C(C(=O)NCC(=O)NCCOc1ccccc1)c1nc2ccc(-c3ccc(F)nc3)cc2s1 (stereo not drawn) [Example 380, 2-[6-(6-fluoropyridin-3-yl)-1,3-benzothiazol-2-yl]-2-(2-methoxyethane-sulfonyl)-N-{[(2-phenoxyethyl)carbamoyl]methyl} acetamide] | 1 | – |
| COCCS(=O)(=O)C(C(=O)NCC(=O)NCC1CC1)c1nc2cc(-c3ccc(F)nc3)ccc2s1 (stereo not drawn) [Example 389, N-{[(cyclopropyl-methyl)carbamoyl]methyl}-2-[5-(6-fluoropyridin-3-yl)-1,3-benzothiazol-2-yl]-2-(2-methoxyethane-sulfonyl)acetamide] | 59 | – |
| COCCNC(=O)CNC(=O)C(c1nc2cc(-c3ccc(F)nc3)ccc2s1)S(=O)(=O)CCOC (stereo not drawn) [Example 390, 2-[5-(6-fluoropyridin-3-yl)-1,3-benzothiazol-2-yl]-2-(2-methoxyethane-sulfonyl)-N-{[(2-methoxyethyl)carbamoyl]methyl} acetamide] | 102 | – |
| COCCS(=O)(=O)C(C(=O)NCC(=O)NC1(c2ncon2)CC1)c1nc2ccc(-c3ccc(F)nc3)cc2s1 (stereo not drawn) [Example 391, 2-[6-(6-fluoropyridin-3-yl)-1,3-benzothiazol-2-yl]-2-(2-methoxyethane-sulfonyl)-N-({[1-(1,2,4-oxadiazol-3-yl)cyclopropyl]carbamoyl}methyl) acetamide] | 68 | – |
| COCCS(=O)(=O)C(C(=O)NCC(=O)NC1CC1)c1nc2cc(-c3cccc(C(=O)NCC(F)(F)F)c3)ccc2s1 (stereo not drawn) [Example 394, 3-[2-({[(cyclopropyl-carbamoyl)methyl]carbamoyl}(2-methoxyethane-sulfonyl)methyl)-1,3-benzothiazol-5-yl]-N-(2,2,2-trifluoroethyl) benzamide] | 4 | – |

The remaining lines, values ahead:

| IC50 [nM] | IC50 [1] [nM] | Compound |
| --- | --- | --- |
| – | 4 | COCCS(=O)(=O)C(C(=O)NCC(=O)NC1CC1)c1nc2ccc(-c3ccc(F)nc3)cc2s1 (stereo not drawn) [Example 376, N-[(Cyclopropylcarbamoyl)methyl]-2-[6-(6-fluoropyridin-3-yl)-1,3-benzothiazol-2-yl]-2-(2-methoxyethanesulfonyl)acetamide] |
| 198 | – | COCCS(=O)(=O)C(C(=O)NCC(=O)NCC(F)(F)F)c1nc2ccc(-c3ccc(F)nc3)cc2s1 (stereo not drawn) [Example 378, 2-[6-(6-fluoropyridin-3-yl)-1,3-benzothiazol-2-yl]-2-(2-methoxyethane-sulfonyl)-N-{[(2,2,2-trifluoroethyl)carbamoyl]methyl} acetamide] |
| 15 | – | COCCS(=O)(=O)C(C(=O)NCC(=O)NC1(C)CC1)c1nc2ccc(-c3ccc(F)nc3)cc2s1 (stereo not drawn) [Example 381, 2-[6-(6-fluoropyridin-3-yl)-1,3-benzothiazol-2-yl]-2-(2-methoxyethane-sulfonyl)-N-{[(1-methylcyclopropyl)carbamoyl]methyl} acetamide] |
| 22 | – | COCCS(=O)(=O)C(C(=O)NCC(=O)NCC1CC1)c1nc2ccc(-c3ccc(F)nc3)cc2s1 (stereo not drawn) [Example 382, N-{[(cyclopropyl-methyl)carbamoyl]methyl}-2-[6-(6-fluoropyridin-3-yl)-1,3-benzothiazol-2-yl]-2-(2-methoxyethane-sulfonyl)acetamide] |
| 3 | – | COCCS(=O)(=O)C(C(=O)NCC(=O)Nc1ccccc1)c1nc2ccc(-c3ccc(F)nc3)cc2s1 (stereo not drawn) [Example 383, 2-[6-(6-fluoropyridin-3-yl)-1,3-benzothiazol-2-yl]-2-(2-methoxyethane-sulfonyl)-N-[(phenyl-carbamoyl)methyl]acetamide] |
| 13 | – | COCCS(=O)(=O)C(C(=O)NCC(=O)NC1COC1)c1nc2ccc(-c3ccc(F)nc3)cc2s1 (stereo not drawn) [Example 384, 2-[6-(6-fluoropyridin-3-yl)-1,3-benzothiazol-2-yl]-2-(2-methoxyethane-sulfonyl)-N-{[(oxetan-3-yl)carbamoyl]methyl} acetamide] |
| 13 | – | COCCS(=O)(=O)C(C(=O)NCC(=O)NC1CC1)c1nc2cc(-c3ccc(F)nc3)ccc2s1 (stereo not drawn) [Example 385, N-[(cyclopropyl-carbamoyl)methyl]-2-[5-(6-fluoropyridin-3-yl)-1,3-benzothiazol-2-yl]-2-(2-methoxyethane-sulfonyl)acetamide] |
| 25 | – | COCCS(=O)(=O)C(C(=O)NCC(=O)NC1COC1)c1nc2cc(-c3ccc(F)nc3)ccc2s1 (stereo not drawn) [Example 386, 2-[5-(6-fluoropyridin-3-yl)-1,3-benzothiazol-2-yl]-2-(2-methoxyethane-sulfonyl)-N-{[(oxetan-3-yl)carbamoyl]methyl} acetamide] |
| 28 | – | COCCS(=O)(=O)C(C(=O)NCC(=O)NC1(C)CCC1)c1nc2cc(-c3ccc(F)nc3)ccc2s1 (stereo not drawn) [Example 387, 2-[5-(6-fluoropyridin-3-yl)-1,3-benzothiazol-2-yl]-2-(2-methoxyethane-sulfonyl)-N-{[(1-methylcyclobutyl)carbamoyl]methyl} acetamide] |
| 48 | – | COCCS(=O)(=O)C(C(=O)NCC(=O)NC1(c2ccccn2)CC1)c1nc2ccc(-c3ccc(F)nc3)cc2s1 (stereo not drawn) [Example 388, 2-[6-(6-fluoropyridin-3-yl)-1,3-benzothiazol-2-yl]-2-(2-methoxyethane-sulfonyl)-N-({[1-(pyridin-2-yl)cyclopropyl]carbamoyl}methyl) acetamide] |
| 14 | – | COCCS(=O)(=O)C(C(=O)NCC(=O)NC1(C)CC1)c1nc2cc(-c3ccc(F)nc3)ccc2s1 (stereo not drawn) [Example 392, 2-[5-(6-fluoropyridin-3-yl)-1,3-benzothiazol-2-yl]-2-(2-methoxyethane-sulfonyl)-N-{[(1-methylcyclopropyl)carbamoyl]methyl} acetamide] |
| – | 33 | COCCS(=O)(=O)C(C(=O)NCC(=O)NC1CC1)c1nc2ccc(-c3ccc(C(=O)N(C)C4CC4)cc3)cc2s1 (stereo not drawn) [Example 393, N-Cyclopropyl-4-(2-(2-((2-(cyclopropylamino)-2-oxoethyl)amino)-1-((2-methoxyethyl)sulfonyl)-2-oxoethyl)benzo[d]thiazol-6-yl)-N-methylbenzamide] |
| 4 | – | COCCS(=O)(=O)C(C(=O)NCC(=O)NC1CC1)c1nc2cc(-c3cccc(C(=O)N4CCOCC4)c3)ccc2s1 (stereo not drawn) [Example 395, N-[(cyclopropyl-carbamoyl)methyl]-2-(2-methoxyethane-sulfonyl)-2-{5-[3-(morpholine-4-arbonyl)phenyl}-1,3-benzothiazol-2-yl}acetamide] |
